Results reported in ChEMBL document CHEMBL1132622, “Synthesis, structure-activity relationships, and in vivo evaluations of substituted di-tert-butylphenols as a novel class of potent, selective, and orally active cyclooxygenase-2 inhibitors. 2. 1,3,4- and 1,2,4-thiadiazole series” (J Med Chem, 1999).

How the values were obtained:
[1] = molecular target: T1, Prostaglandin G/H synthase 2 (Homo sapiens, UniProt P35354); assay: Inhibition of recombinant human prostaglandin G/H synthase 2 (COX-2)
T1 sequence (P35354 whole entry): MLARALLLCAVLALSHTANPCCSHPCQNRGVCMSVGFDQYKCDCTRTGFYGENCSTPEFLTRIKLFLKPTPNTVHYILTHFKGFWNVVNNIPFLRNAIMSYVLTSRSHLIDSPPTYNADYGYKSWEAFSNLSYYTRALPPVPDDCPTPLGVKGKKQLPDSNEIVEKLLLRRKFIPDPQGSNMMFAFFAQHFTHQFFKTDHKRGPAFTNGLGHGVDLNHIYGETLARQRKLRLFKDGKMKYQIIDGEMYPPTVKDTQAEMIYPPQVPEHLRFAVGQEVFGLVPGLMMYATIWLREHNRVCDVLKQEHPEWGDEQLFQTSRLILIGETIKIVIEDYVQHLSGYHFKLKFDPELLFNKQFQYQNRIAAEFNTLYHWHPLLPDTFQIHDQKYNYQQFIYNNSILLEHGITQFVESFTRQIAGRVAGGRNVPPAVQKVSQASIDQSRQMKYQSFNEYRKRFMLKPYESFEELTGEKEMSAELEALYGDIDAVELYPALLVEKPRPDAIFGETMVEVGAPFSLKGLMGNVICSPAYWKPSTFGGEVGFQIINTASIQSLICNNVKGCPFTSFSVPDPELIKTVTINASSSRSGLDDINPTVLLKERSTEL

[2] = molecular target: Prostaglandin G/H synthase 1 (Homo sapiens, UniProt P23219); assay: IC50 value against Prostaglandin G/H synthase 1 of human platelet rich plasma; type: cell-free
Prostaglandin G/H synthase 1 (Homo sapiens, UniProt P23219), sequence (P23219 whole entry): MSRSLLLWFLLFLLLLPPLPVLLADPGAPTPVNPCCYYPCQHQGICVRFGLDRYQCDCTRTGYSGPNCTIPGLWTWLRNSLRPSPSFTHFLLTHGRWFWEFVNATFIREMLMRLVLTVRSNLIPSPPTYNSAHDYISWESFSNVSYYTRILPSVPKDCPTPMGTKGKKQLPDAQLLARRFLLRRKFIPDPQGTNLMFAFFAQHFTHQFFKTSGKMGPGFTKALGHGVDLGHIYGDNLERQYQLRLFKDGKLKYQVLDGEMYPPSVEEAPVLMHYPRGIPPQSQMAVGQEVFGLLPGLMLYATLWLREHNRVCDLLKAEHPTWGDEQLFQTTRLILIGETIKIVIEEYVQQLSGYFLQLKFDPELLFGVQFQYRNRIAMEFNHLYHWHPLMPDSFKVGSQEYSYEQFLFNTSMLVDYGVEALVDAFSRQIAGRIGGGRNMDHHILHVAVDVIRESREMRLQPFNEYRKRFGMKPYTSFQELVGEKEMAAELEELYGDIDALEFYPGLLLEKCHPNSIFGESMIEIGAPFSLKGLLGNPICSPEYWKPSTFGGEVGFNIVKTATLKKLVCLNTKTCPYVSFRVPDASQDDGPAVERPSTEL

[3] = molecular target: T2, Prostaglandin G/H synthase 1 (Ovis aries, UniProt P05979); assay: IC50 value against ovine Prostaglandin G/H synthase 1
T2 sequence (P05979 whole entry): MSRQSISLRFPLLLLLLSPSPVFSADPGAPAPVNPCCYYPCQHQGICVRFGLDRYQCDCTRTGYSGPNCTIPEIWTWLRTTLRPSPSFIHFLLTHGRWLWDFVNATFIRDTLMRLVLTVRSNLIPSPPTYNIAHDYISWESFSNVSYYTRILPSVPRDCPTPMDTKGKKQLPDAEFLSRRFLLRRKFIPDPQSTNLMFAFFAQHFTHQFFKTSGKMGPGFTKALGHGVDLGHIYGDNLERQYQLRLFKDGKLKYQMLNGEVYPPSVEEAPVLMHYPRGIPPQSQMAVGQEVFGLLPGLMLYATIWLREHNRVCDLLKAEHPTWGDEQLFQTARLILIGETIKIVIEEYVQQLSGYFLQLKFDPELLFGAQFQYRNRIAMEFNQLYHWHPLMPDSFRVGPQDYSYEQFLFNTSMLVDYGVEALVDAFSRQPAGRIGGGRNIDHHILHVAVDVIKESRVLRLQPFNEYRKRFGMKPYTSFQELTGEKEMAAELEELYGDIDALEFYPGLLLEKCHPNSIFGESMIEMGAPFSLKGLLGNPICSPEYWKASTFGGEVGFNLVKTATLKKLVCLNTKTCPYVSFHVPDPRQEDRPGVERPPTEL

[4] = molecular target: T3, Prostaglandin G/H synthase 2 (Mus musculus, UniProt Q05769); assay: IC50 value against Prostaglandin G/H synthase 2 of murine J774A.1 cell line
T3 sequence (Q05769 whole entry): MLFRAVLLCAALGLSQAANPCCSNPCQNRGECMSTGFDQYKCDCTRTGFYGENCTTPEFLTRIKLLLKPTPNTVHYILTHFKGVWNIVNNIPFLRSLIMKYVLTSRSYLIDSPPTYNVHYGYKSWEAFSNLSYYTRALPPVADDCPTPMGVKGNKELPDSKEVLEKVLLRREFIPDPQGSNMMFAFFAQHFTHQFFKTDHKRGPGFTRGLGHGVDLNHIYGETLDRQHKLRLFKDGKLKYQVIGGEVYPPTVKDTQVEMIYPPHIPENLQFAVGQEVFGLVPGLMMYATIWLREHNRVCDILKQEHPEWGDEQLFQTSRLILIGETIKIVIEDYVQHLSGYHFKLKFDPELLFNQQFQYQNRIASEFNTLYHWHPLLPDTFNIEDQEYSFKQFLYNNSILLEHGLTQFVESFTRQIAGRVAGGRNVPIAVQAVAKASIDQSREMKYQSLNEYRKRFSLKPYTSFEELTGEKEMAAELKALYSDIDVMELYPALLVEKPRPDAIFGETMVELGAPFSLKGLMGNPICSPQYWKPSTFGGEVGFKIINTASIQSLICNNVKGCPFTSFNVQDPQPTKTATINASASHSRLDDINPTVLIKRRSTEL

Rattus norvegicus [5] = species on record: Rattus norvegicus; assay: ED50 was measured by CFE assay method.; type: functional
Rattus norvegicus [6] = species on record: Rattus norvegicus; assay: Percentage inhibition of the prostaglandin synthesis was measured in rats.; type: functional
Rattus norvegicus [7] = species on record: Rattus norvegicus; assay: Percentage of gastric damage was measured in rats.; type: functional, Stomach
[8] = molecular target: T3, Prostaglandin G/H synthase 2
Rattus norvegicus [9] = species on record: Rattus norvegicus; assay: Lesion frequency was measured in rats.; type: functional
Rattus norvegicus [10] = species on record: Rattus norvegicus; assay: ED50 was measured by hyperalgesia assay method.; type: functional
[11] = molecular target: T4, Prostaglandin G/H synthase 1 (Ovis aries) (UniProt P05979); assay: IC50 value against ovine Prostaglandin G/H synthase 1 at 10 uM
T4 sequence (whole entry): T2 sequence (P05979 whole entry)

[12] = molecular target: T5, Prostaglandin G/H synthase 2 (Homo sapiens) (UniProt P35354); assay: IC50 value against recombinant human Prostaglandin G/H synthase 2 at 10 uM
T5 sequence (whole entry): T1 sequence (P35354 whole entry)

[13] = molecular target: T4, Prostaglandin G/H synthase 1 (Ovis aries); assay: IC50 value against ovine Prostaglandin G/H synthase 1 at 30 uM

| SMILES | IC50 [1] | IC50 [2] | IC50 [3] | IC50 [4] | IC50 [8] | other results |
| --- | --- | --- | --- | --- | --- | --- |
| CC(C)(C)c1cc(-c2nnc(SCCC(=O)O)s2)cc(C(C)(C)C)c1O | > 20 µM | > 20 µM | > 20 µM | Not Active | – | – |
| COC(=O)CCSc1nnc(-c2cc(C(C)(C)C)c(O)c(C(C)(C)C)c2)s1 | > 20 µM | 9.9 µM | > 20 µM | Not Active | – | – |
| CCCSc1nnc(-c2cc(C(C)(C)C)c(O)c(C(C)(C)C)c2)s1 | 100 µM | 4.1 µM | > 20 µM | Not Active | – | – |
| CC(C)(C)c1cc(-c2nsc(NC#N)n2)cc(C(C)(C)C)c1O | 0.047 µM | 1.2 µM | 32 µM | – | 0.026 µM | ED50 (Rattus norvegicus [5]): 5.8 mg/kg; Inhibition (Rattus norvegicus [6]): 87.7%; Damaged area (Rattus norvegicus [7]): 4.91%; Lesion frequency (Rattus norvegicus [9]): 87.5%; ED50 (Rattus norvegicus [10]): 0.2 mg/kg |
| COc1ccc2c(c1)c(CC(=O)O)c(C)n2C(=O)c1ccc(Cl)cc1 [INDOMETHACIN] | – | – | – | – | – | ED50 (Rattus norvegicus [5]): 1.6 mg/kg; Inhibition (Rattus norvegicus [6]): 13.36%; Damaged area (Rattus norvegicus [7]): 0.18%; Lesion frequency (Rattus norvegicus [9]): 75%; ED50 (Rattus norvegicus [10]): 0.6 mg/kg |
| CSc1nc(-c2cc(C(C)(C)C)c(O)c(C(C)(C)C)c2)ns1 | – | 3.6 µM | – | – | 0.26 µM | inhibition [11]: 16%; inhibition [12]: 20% |
| CC(C)(C)c1cc(-c2nnc(N)s2)cc(C(C)(C)C)c1O | 3.5 µM | 0.53 µM | – | – | 0.11 µM | inhibition [13]: 34% |
| CCSc1nnc(-c2nc(C(C)(C)C)c(O)c(C(C)(C)C)n2)s1 | 2 µM | 0.68 µM | – | – | 0.018 µM | inhibition [11]: 39% |
| CC(C)(C)c1cc(-c2nnc(SCC(F)(F)F)s2)cc(C(C)(C)C)c1O | > 20 µM | > 20 µM | > 20 µM | Not Active | – | – |
| CCCOc1nnc(-c2cc(C(C)(C)C)c(O)c(C(C)(C)C)c2)s1 | > 20 µM | 3.6 µM | > 20 µM | Not Active | – | – |
| CCSc1nnc(-c2cc(C(C)(C)C)c(O)c(C(C)(C)C)c2)s1.C[N+](C)(C)CC[O-] | – | – | – | – | – | ED50 (Rattus norvegicus [5]): 7.1 mg/kg; Inhibition (Rattus norvegicus [6]): 77.4%; Damaged area (Rattus norvegicus [7]): 0.05%; Lesion frequency (Rattus norvegicus [9]): 12.5% |
| CC(C)Oc1nnc(-c2cc(C(C)(C)C)c(O)c(C(C)(C)C)c2)s1 | > 20 µM | 4.5 µM | > 20 µM | Not Active | – | – |
| CCOc1nnc(-c2cc(C(C)(C)C)c(O)c(C(C)(C)C)c2)s1 | 6.1 µM | 1.2 µM | 3.4 µM | – | 0.07 µM | – |
| CS(=O)(=O)c1ccc(-n2nc(C(F)(F)F)cc2-c2ccc(F)cc2)cc1 [SC-58125] | – | – | – | – | – | ED50 (Rattus norvegicus [5]): > 30 mg/kg; Inhibition (Rattus norvegicus [6]): -1.58%; Damaged area (Rattus norvegicus [7]): 0%; Lesion frequency (Rattus norvegicus [9]): 0%; ED50 (Rattus norvegicus [10]): 0.3 mg/kg |
| CC(C)(C)c1cc(-c2nnc(NC#N)s2)cc(C(C)(C)C)c1O | > 20 µM | 3.6 µM | > 20 µM | Not Active | – | ED50 (Rattus norvegicus [5]): 7.7 mg/kg; Inhibition (Rattus norvegicus [6]): 22%; Damaged area (Rattus norvegicus [7]): 0.02%; Lesion frequency (Rattus norvegicus [9]): 12.5%; ED50 (Rattus norvegicus [10]): 1.3 mg/kg |
| CNc1nnc(-c2cc(C(C)(C)C)c(O)c(C(C)(C)C)c2)s1 | 9.6 µM | 0.3 µM | 0.52 µM | – | 0.69 µM | – |
| CCCSc1nnc(-c2cc(C(C)C)c(O)c(C(C)C)c2)s1 | > 20 µM | > 20 µM | > 20 µM | – | 1.5 µM | – |
| CC(C)Sc1nnc(-c2cc(C(C)(C)C)c(O)c(C(C)(C)C)c2)s1 | > 20 µM | 13.6 µM | > 20 µM | – | 8.5 µM | – |
| CC(C)(C)c1cc(-c2nnc(N=C(N)N)o2)cc(C(C)(C)C)c1O | 23 µM | 2.8 µM | – | – | 0.33 µM | inhibition [13]: 16% |
| CCCSc1nnc(-c2cc(C(C)(C)C)c(O)c(C(C)(C)C)c2)o1 | > 20 µM | 1.9 µM | > 20 µM | Not Active | – | – |
| CC(C)(C)c1cc(-c2nnc(SCCN)s2)cc(C(C)(C)C)c1O | 41 µM | > 20 µM | 36 µM | Not Active | – | – |
| CC(C)(C)c1cc(-c2nnc(N=C(N)N)s2)cc(C(C)(C)C)c1O | 17 µM | 2.8 µM | 88 µM | – | 0.21 µM | – |
| CSc1nnc(-c2cc(C(C)C)c(O)c(C(C)C)c2)s1 | – | – | – | – | > 20 µM | inhibition [11]: 25%; inhibition [12]: 14% |
| CS(=O)(=O)Nc1ccc([N+](=O)[O-])cc1OC1CCCCC1 [NS-398] | – | – | – | – | – | ED50 (Rattus norvegicus [5]): 0.61 mg/kg; Inhibition (Rattus norvegicus [6]): 30.7%; Damaged area (Rattus norvegicus [7]): 0%; Lesion frequency (Rattus norvegicus [9]): 0%; ED50 (Rattus norvegicus [10]): 7.4 mg/kg |
